{"source": "ChEMBL document CHEMBL3808382", "about": "“Discovery and Structure-Activity Relationship of a Bioactive Fragment of ELABELA that Modulates Vascular and Cardiac Functions” (J Med Chem, 2016)", "key": {"[1]": {"system": "Plasma", "assay": "Drug level in rat plasma treated with ELA at 37 degC after 2 hrs by HPLC-MS analysis", "assay_type": "ADME, cell-free"}, "[2]": {"molecular_target": "T1, Apelin receptor (Homo sapiens, UniProt P35414)", "T1 sequence (P35414 whole entry)": "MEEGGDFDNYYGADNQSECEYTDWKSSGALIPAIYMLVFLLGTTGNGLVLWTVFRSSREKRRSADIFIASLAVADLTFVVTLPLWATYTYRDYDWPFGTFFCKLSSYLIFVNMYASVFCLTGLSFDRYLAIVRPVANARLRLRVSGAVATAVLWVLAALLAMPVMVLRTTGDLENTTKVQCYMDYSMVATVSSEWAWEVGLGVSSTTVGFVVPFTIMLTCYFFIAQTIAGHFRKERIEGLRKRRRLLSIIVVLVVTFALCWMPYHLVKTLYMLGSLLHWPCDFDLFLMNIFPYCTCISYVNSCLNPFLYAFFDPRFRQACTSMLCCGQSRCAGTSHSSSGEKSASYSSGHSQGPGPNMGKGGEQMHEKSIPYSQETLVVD", "assay": "biochemical", "assay_type": "cell-based, HEK293"}, "[3]": {"molecular_target": "T1, Apelin receptor", "assay": "Agonist activity at human APJ receptor expressed in HEK-293 cells assessed as dissociation of G-alpha-i1 protein after 5 mins by BRET assay", "assay_type": "cell-based, HEK293"}, "[4]": {"molecular_target": "T1, Apelin receptor", "assay": "Agonist activity at human APJ receptor expressed in HEK-293 cells assessed as beta-arrestin2 recruitment after 30 mins by BRET assay", "assay_type": "cell-based, HEK293"}, "[5]": {"system": "Rattus norvegicus", "assay": "Hypotensive activity in anesthetized Sprague-Dawley rat assessed as induction of hypotensive rebound at 6.5 to 293 nmol/kg, iv as bolus dose", "assay_type": "functional, organism-based"}, "[6]": {"system": "Rattus norvegicus", "assay": "Hypotensive activity in anesthetized Sprague-Dawley rat assessed as maximal change in heart rate at 293 nmol/kg, iv as bolus dose", "assay_type": "functional, organism-based"}, "[7]": {"system": "Heart", "assay": "Inotropic activity in Langendorff perfused Sprague-Dawley rat heart assessed as increase in left ventricular developed pressure at 0.03 nM relative to control", "assay_type": "functional", "details": "Heart left ventricle"}, "[8]": {"system": "Rattus norvegicus", "assay": "Inotropic activity in Sprague-Dawley rat assessed as induction of left ventricular fractional shortening at 36 pmol/g/min, iv through 24 hrs infusion measured after 6 to 24 hrs by echocardiography", "assay_type": "functional, organism-based", "details": "Heart left ventricle"}, "[9]": {"system": "Rattus norvegicus", "assay": "Increase in daily urine output in Sprague-Dawley rat at 36 pmol/g/min, iv through 24 hrs infusion measured during compound dosing", "assay_type": "functional, organism-based"}, "[10]": {"system": "Rattus norvegicus", "assay": "Change in water intake in Sprague-Dawley rat at 36 pmol/g/min, iv through 24 hrs infusion measured during compound dosing", "assay_type": "functional, organism-based"}, "[11]": {"system": "Rattus norvegicus", "assay": "Change in plasma volume in Sprague-Dawley rat at 36 pmol/g/min, iv through 24 hrs infusion measured during compound dosing", "assay_type": "functional, organism-based"}, "[12]": {"system": "Rattus norvegicus", "assay": "Decrease in urine osmolality in Sprague-Dawley rat at 36 pmol/g/min, iv through 24 hrs infusion relative to control", "assay_type": "functional, organism-based"}, "[13]": {"system": "Rattus norvegicus", "assay": "Decrease in Na+ concentration in Sprague-Dawley rat urine at 36 pmol/g/min, iv through 24 hrs infusion relative to control", "assay_type": "functional, organism-based"}, "[14]": {"system": "Rattus norvegicus", "assay": "Decrease in K+ concentration in Sprague-Dawley rat urine at 36 pmol/g/min, iv through 24 hrs infusion relative to control", "assay_type": "functional, organism-based"}, "[15]": {"system": "Rattus norvegicus", "assay": "Hypotensive activity in anesthetized Sprague-Dawley rat at 65 nmol/kg, iv as bolus dose", "assay_type": "functional, organism-based"}, "[16]": {"system": "Rattus norvegicus", "assay": "Hypotensive activity in anesthetized Sprague-Dawley rat assessed as drop in mean arterial pressure at 650 nmol/kg, iv as bolus dose", "assay_type": "functional, Artery"}, "[17]": {"assay": "Half life in rat plasma at 37 degC", "assay_type": "ADME, cell-free"}, "[18]": {"system": "Heart", "assay": "Inotropic activity in Langendorff perfused Sprague-Dawley rat heart assessed as increase in left ventricular developed pressure", "assay_type": "functional, tissue-based", "details": "Heart left ventricle"}}, "note": "Active and inactive are the calls of the source. The rule behind the calls is not given here."}
{"compound": "CSCC[C@H](NC(=O)[C@@H]1CSSC[C@H](NC(=O)[C@H](CC(N)=O)NC(=O)[C@H](Cc2c[nH]cn2)NC(=O)[C@H](CCCCN)NC(=O)[C@H](CCCNC(=N)N)NC(=O)[C@H](CC(C)C)NC(=O)[C@@H](N)CCCCN)C(=O)N[C@@H](CC(C)C)C(=O)N[C@@H](CCC(N)=O)C(=O)N[C@@H](CCCNC(=N)N)C(=O)N[C@@H](CCCNC(=N)N)C(=O)N1)C(=O)N1CCC[C@H]1C(=O)N[C@@H](CC(C)C)C(=O)N[C@@H](Cc1c[nH]cn1)C(=O)N[C@@H](CO)C(=O)N[C@@H](CCCNC(=N)N)C(=O)N[C@H](C(=O)N1CCC[C@H]1C(=O)N[C@@H](Cc1ccccc1)C(=O)N1CCC[C@H]1C(=O)O)C(C)C", "values": [{"measurement": "Drug metabolism", "setting": "[1]", "value": "metabolite_detected"}]}
{"compound": "CSCC[C@H](NC(=O)[C@@H]1CSSC[C@H](N)C(=O)N[C@@H](CC(C)C)C(=O)N[C@@H](CCC(N)=O)C(=O)N[C@@H](CCCNC(=N)N)C(=O)N[C@@H](CCCNC(=N)N)C(=O)N1)C(=O)N1CCC[C@H]1C(=O)N[C@@H](CC(C)C)C(=O)N[C@@H](Cc1cnc[nH]1)C(=O)N[C@@H](CO)C(=O)N[C@@H](CCCNC(=N)N)C(=O)N[C@H](C(=O)N1CCC[C@H]1C(=O)N[C@@H](Cc1ccccc1)C(=O)N1CCC[C@H]1C(=O)O)C(C)C", "values": [{"measurement": "Ki", "setting": "[2]", "value": 0.23, "unit": "nM"}, {"measurement": "EC50", "setting": "[3]", "value": 6.6, "unit": "nM"}, {"measurement": "EC50", "setting": "[4]", "value": 151, "unit": "nM"}]}
{"compound": "CSCC[C@@H](NC(=O)[C@@H](CS)NC(=O)[C@@H](CCCNC(=N)N)NC(=O)[C@H](CCCNC(=N)N)NC(=O)[C@H]1CCC(=O)N1)C(=O)N1CCC[C@@H]1C(=O)N[C@H](CC(C)C)C(=O)N[C@H](Cc1cnc[nH]1)C(=O)N[C@H](CO)C(=O)N[C@H](CCCNC(=N)N)C(=O)N[C@@H](C(=O)N1CCC[C@@H]1C(=O)N[C@H](Cc1ccccc1)C(=O)N1CCC[C@@H]1C(=O)O)C(C)C", "values": [{"measurement": "Activity", "setting": "[5]", "value": "inactive"}, {"measurement": "Activity", "setting": "[6]", "value": "Active"}, {"measurement": "Activity", "setting": "[7]", "value": "Active"}, {"measurement": "Activity", "setting": "[8]", "value": "Active"}, {"measurement": "Activity", "setting": "[9]", "value": "Active"}, {"measurement": "Activity", "setting": "[10]", "value": "inactive"}, {"measurement": "Activity", "setting": "[11]", "value": "inactive"}, {"measurement": "Activity", "setting": "[12]", "value": "Active"}, {"measurement": "Activity", "setting": "[13]", "value": "Active"}, {"measurement": "Activity", "setting": "[14]", "value": "Active"}]}
{"compound": "CSCC[C@H](NC(=O)[C@H](N)CS)C(=O)N1CCC[C@H]1C(=O)N[C@@H](CC(C)C)C(=O)N[C@@H](Cc1cnc[nH]1)C(=O)N[C@@H](CO)C(=O)N[C@@H](CCCNC(=N)N)C(=O)N[C@H](C(=O)N1CCC[C@H]1C(=O)N[C@@H](Cc1ccccc1)C(=O)N1CCC[C@H]1C(=O)O)C(C)C", "values": [{"measurement": "Activity", "setting": "[15]", "value": "inactive"}]}
{"compound": "CSCC[C@H](NC(=O)[C@@H](N)CS)C(=O)N1CCC[C@H]1C(=O)N[C@@H](CC(C)C)C(=O)N[C@@H](Cc1cnc[nH]1)C(=O)N[C@@H](CO)C(=O)N[C@@H](CCCNC(=N)N)C(=O)N[C@H](C(=O)N1CCC[C@H]1C(=O)N[C@@H](Cc1ccccc1)C(=O)N1CCC[C@H]1C(=O)O)C(C)C", "values": [{"measurement": "Activity", "setting": "[16]", "value": 10, "unit": "mmHg"}]}
{"compound": "CSCC[C@H](NC(=O)[C@H](CS)NC(=O)[C@H](CCCNC(=N)N)NC(=O)[C@H](CCCNC(=N)N)NC(=O)[C@@H]1CCC(=O)N1)C(=O)N1CCC[C@H]1C(=O)N[C@@H](CC(C)C)C(=O)N[C@@H](Cc1cnc[nH]1)C(=O)N[C@@H](CO)C(=O)N[C@@H](CCCNC(=N)N)C(=O)N[C@H](C(=O)N1CCC[C@H]1C(=O)N[C@@H](Cc1ccccc1)C(=O)N1CCC[C@H]1C(=O)O)C(C)C", "values": [{"measurement": "half-life", "setting": "[17]", "value": "< 2", "unit": "min"}, {"measurement": "EC50", "setting": "[18]", "value": 0.0015, "unit": "nM"}]}
{"compound": "H-QRPVNLTMR-OH", "values": [{"measurement": "Drug metabolism", "setting": "[1]", "value": "metabolite_detected"}]}
